Laboratory results from EPA's ToxValDB 9.5.
Values after ≈ are worked out from the molar mass of the structure shown. Values joined by “and” are separate entries in the source; they are usually repeats but may differ in a detail not shown here. Identical values can stand only once. Blank lines part the entries; values can stand above or below the molecule they belong to.

Columns and labels:
Cavia porcellus = settings: acute; Inhalation
Rattus norvegicus [1] = system: Rattus norvegicus
Oryctolagus sp. = settings: New Zealand; for LD50: acute, dermal, occlusive; for NOAEL: duration: 13 days, oral, gavage
Canidae [2] = settings: chronic, oral, Dog Other
Canidae [3] = settings: chronic, oral, M/F, Dog Other
Mus musculus [4] = settings: subchronic; duration: 60 days; oral; gavage; Testes: Decreased sperm counts + Testes: Seminiferous tubule degeneration
Rattus norvegicus [5] = settings: oral
Rattus norvegicus [6] = settings: chronic, duration: 2 years, M/F
Mus musculus [7] = settings: uterotrophic, duration: 3 days, Active
Rattus norvegicus [8] = settings: for LEL: uterotrophic, Active
Anas platyrhynchos = settings: oral
Rattus norvegicus [9] = settings: repeat dose other; oral
Canidae [10] = settings: subchronic; duration: 90 days; oral; diet; Beagle
Gallus sp. = settings: subchronic; duration: 90 days; oral; F; neurotoxicity
Homo sapiens = settings: clinical; duration: 1 days; inhalation; nose only; unknown; respiratory
Rattus norvegicus [11] = settings: chronic; duration: 2 years; oral; diet; Liver: Increased weight
Neovison sp. = settings: repeat dose other; oral; Mink
[12] = acute, oral, gavage, Sprague-Dawley
[13] = reproduction developmental, duration: 19 days, oral, gavage, Sprague-Dawley
[14] = duration: 12 months, diet, increased relative liver weight in male dogs
[15] = short-term, duration: 28 days, oral, gavage
[16] = subchronic, duration: 90 days, oral, diet, Sprague-Dawley
[17] = duration: 2 years, diet, increased absolute and relative weight of stomach and small intestine
[18] = Hershberger, duration: 10 days, oral, gavage, Sprague-Dawley, active + Androgenic + Negative + androgenic
[19] = reproduction developmental, duration: 10 days, oral, gavage, F, CD
[20] = oral, diet, liver weight increased males

Compound: CC(C)(N=C=O)c1cccc(C(C)(C)N=C=O)c1 [1,3-Bis(2-isocyanato-2-propyl)benzene]
LC50 (Cavia porcellus): 0.24 µg/mL (≈ 0.982 µM)
LC50 (Rattus norvegicus [1]; acute, inhalation, Sprague-Dawley): 0.027 µg/mL (≈ 0.111 µM)
LD50 (Rattus norvegicus [1]; [12]): > 5000 mg/kg
LOAEL (Rattus norvegicus [1]; [13]): 250 mg/kg-day
NOAEL (Rattus norvegicus [1]; [13]): 150 mg/kg-day
NOAEL (Rattus norvegicus [1]; reproduction developmental, duration: 19 days, oral, gavage, Sprague-Dawley, generation: F0): 150 mg/kg-day
NOAEL (Rattus norvegicus [1]; reproduction developmental, duration: 19 days, oral, gavage, Sprague-Dawley, generation: F1): 250 mg/kg-day
NOAEL (Rattus norvegicus [1]; reproduction developmental, oral, gavage, F, Sprague-Dawley): 150 mg/kg-day
NOAEL (Rattus norvegicus [1]; reproduction developmental, oral, gavage, Sprague-Dawley, generation: F1): 250 mg/kg-day
NOAEL (Rattus norvegicus [1]; short-term, duration: 4 weeks, Inhalation, Sprague-Dawley): 1.5 mg/m3
LD50 (Oryctolagus sp.): > 2000 mg/kg

Compound: CC(Oc1cc(Cl)c(Cl)cc1Cl)C(=O)O (centres undefined) [2-(2,4,5-Trichlorophenoxy)propionic acid]
NOEL (Canidae [2]; duration: 2 years, diet, Liver: Histopathology): 0.75 mg/kg-day
LOAEL (Canidae [3]; histopathological liver): 2.5 mg/kg-day
NOEL (Canidae [3]; histopathological liver): 0.75 mg/kg-day

Compound: C=CC#N [Acrylonitrile]
NOAEL (Mus musculus [4]): 1 mg/kg-day
LOAEL (Rattus norvegicus [5]; chronic, duration: 22 months, drinking water, M/F, Spartan Sprague-Dawley, hematological): 0.09 mg/kg-day
LOAEL (Rattus norvegicus [6]; inhalation, Degeneration and inflammation of nasal respiratory epithelium + hyperplasia of mucous secreting cells): 43 mg/m3

Compound: O=C(O)c1ccccc1 [Benzoic acid]
LEL (Mus musculus [7]; injection, subcutaneous): 1 µg/100 g
LEL (ug/100 g BW) (Mus musculus [7]; injection, subcutaneous): 10

LEL (Rattus norvegicus [8]; duration: 3 days, oral): 3.7 mg/kg-day
LEL (Mus musculus [7]; oral): 11.1 mg/kg-day
Compound: O=C(OCc1ccccc1)c1ccccc1O [Benzyl salicylate]

Compound: CCSC(=O)N(CC(C)C)CC(C)C [Butylate]
NOEL (Canidae [2]; duration: 12 months, capsule, Liver: Increased relative weight): 5 mg/kg-day
LOAEL (Canidae [3]; [14]): 25 mg/kg-day
NOAEL (Canidae [3]; [14]): 5 mg/kg-day

Compound: [Cl][Cd][Cl] [Cadmium chloride]
LOAEL (Anas platyrhynchos): 20 mg/kg-day
NOAEL (Anas platyrhynchos): 1.45 mg/kg-day
LOAEL (Rattus norvegicus [9]): 10 mg/kg-day
NOAEL (Rattus norvegicus [9]): 1 mg/kg-day

Compound: CCCCCCCCCCCCCCCCc1c(Oc2ccccc2S(=O)(=O)O)cccc1S(=O)(=O)O.[Na+].[Na+] [Disodium hexadecyl(sulfophenoxy)benzenesulfonate]
LD50 (Rattus norvegicus [1]; acute, dermal, occlusive, Sprague-Dawley): > 2000 mg/kg
LD50 (Rattus norvegicus [1]; acute, dermal, occlusive, Wistar): > 2000 mg/kg
LD50 (Rattus norvegicus [1]; acute, oral, gavage): > 3980 mg/kg
LD50 (Rattus norvegicus [1]; acute, oral, gavage, Fischer 344): 1500 mg/kg and > 2000 mg/kg
LD50 (Rattus norvegicus [1]; [12]): 7740 mg/kg and > 5000 mg/kg
LD50 (Rattus norvegicus [1]; acute, oral, gavage, Wistar): > 5000 mg/kg
LOAEL (Rattus norvegicus [1]; [15]): 1000 mg/kg-day
NOAEL (Rattus norvegicus [1]; [15]): 250 mg/kg-day
LOAEL (Rattus norvegicus [1]; [16]): 200 mg/kg-day
NOAEL (Rattus norvegicus [1]; [16]): 100 mg/kg-day
NOAEL (Canidae [10]): 200 mg/kg-day

Compound: CCOP(=S)(Oc1ccc([N+](=O)[O-])cc1)c1ccccc1 (centres undefined) [EPN]
LEL (Gallus sp.): 0.1 mg/kg-day
NOEL (Gallus sp.): 0.01 mg/kg-day

Compound: O=C(O)[C@@H]1[C@H](C(=O)O)[C@H]2CC[C@@H]1O2 [Endothal]
NOEL (Canidae [2]; duration: 2 years, diet, Small intestine: Increased weight + Stomach: Increased weight): 2 mg/kg-day
LEL (Canidae [3]; [17]): 6 mg/kg-day
NOEL (Canidae [3]; [17]): 2 mg/kg-day

LEL (Rattus norvegicus [8]; duration: 3 days, injection, subcutaneous): 2 mg/kg-day
LEL (Rattus norvegicus [8]; duration: 7 days, injection, subcutaneous): 0.00025 mg/day
LEL (gamma) (Mus musculus [7]; injection, subcutaneous): 1 and 3
Compound: C[C@]12CC[C@H]3C(=CCc4cc(O)ccc43)[C@@H]1CCC2=O [Equilin]
LOEL (Rattus norvegicus [8]; [18]): 2 mg/kg-day
NOEL (Rattus norvegicus [8]; [18]): 0.5 mg/kg-day

Compound: FF [Fluorine]
NOAEL (Homo sapiens): 15.5 mg/m3

Compound: O=C(O)CCCC(=O)O [Glutaric acid]
LD50 (Rattus norvegicus [1]; acute, oral, Sprague-Dawley): 2750 mg/kg
NOAEL (Rattus norvegicus [1]; developmental, duration: 10 days, oral, gavage, CD): 1300 mg/kg-day
LOAEL (Rattus norvegicus [1]; [19]): 400 mg/kg-day
NOAEL (Rattus norvegicus [1]; [19]): 125 mg/kg-day
NOAEL (Rattus norvegicus [1]; reproduction developmental, duration: 10 days, oral, gavage, F, Sprague-Dawley): ≥ 1000 mg/kg-day
LOAEL (% diet) (Rattus norvegicus [1]; [16]): 2
NOAEL (% diet) (Rattus norvegicus [1]; [16]): ≥ 1
LD50 (Oryctolagus sp.): > 10000 mg/kg
NOAEL (Oryctolagus sp.; developmental): > 500 mg/kg-day
NOAEL (Oryctolagus sp.; reproduction developmental, F): > 500 mg/kg-day
LOAEL (% diet) (Canidae [10]): 3
NOAEL (% diet) (Canidae [10]): ≥ 2

Compound: ClC1=C(Cl)C2(Cl)C3C(Cl)C=CC3C1(Cl)C2(Cl)Cl (centres undefined) [Heptachlor]
NOEL (Rattus norvegicus [11]): 0.15 mg/kg-day
LOAEL (Neovison sp.): 1 mg/kg-day
NOAEL (Neovison sp.): 0.1 mg/kg-day
LOAEL (Rattus norvegicus [5]; reproduction developmental, duration: 14 days, gavage, F, CFT-Wistar, reproductive): 1.8 mg/kg-day
LOAEL (Rattus norvegicus [5]; reproduction developmental, duration: 364 days, gavage, M/F, Sprague-Dawley, immunological, neurological): 0.03 mg/kg-day
LEL (Rattus norvegicus [6]; [20]): 0.25 mg/kg-day
NOEL (Rattus norvegicus [6]; [20]): 0.15 mg/kg-day
